Measured values from ChEMBL document CHEMBL5728323, “1,4,5-substituted 1,2,3-triazole analogues as antagonists of the pregnane X receptor” (2021).
pIC50: −log10 of the molar value.

Experiments:
[1] = Briefly, various concentrations (1-to-3 series dilutions for 10 concentration levels from 40 μM with 0.5% final DMSO concentration) of hPXR agonist rifampicin, various concentrations of tested chemicals alone or combined with 5 μM of rifampicin, were added to the wells of white 384-well tissue culture-treated plates with 5,000 cells in 25 μl of phenol red-free DMEM supplemented with 5% charcoal/dextran-treated FBS and incubated for 24 h at 37° C. before luciferase assay using Steadylite HTS (PerkinElmer Life Sciences).; format: cell-based; details: HepG2

COc1ccc(OC)c(-c2nc(C)c(C(=O)c3ccc(C(C)(C)C)cc3)n2C)c1
pIC50: 6.10 | pIC50 [1]: 5.51
